# From patent US20190375708A1 (VenatoRx Pharmaceuticals, Inc., priority 2018, published 2019)
# What was measured:
# [1] = system: HBV replication in HepAD38 cells; test: Anti-HBV replication assay in HepAD38 cells (QPCR of extracellular HBV DNA); type: cell-based, HBV (genotype D, serotype ayw); conditions: Hepatitis B virus, 168 h, 7 days incubation, extracellular HBV DNA by QPCR, read-out: Anti-HBV EC50
# In short: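 Stably transfected HepG2-derived HepAD38 cells express HBV (genotype D, ayw) once tetracycline is withdrawn. Compounds act for 7 days, after which secreted HBV DNA is quantified by QPCR relative to DMSO-treated wells.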
# [2] = In vitro cytotoxicity assay (MTT cell viability) in HepG2 cells; type: cell-based, human; conditions: human
# In short: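 Viability measured by MTT conversion, absorbance at 492 nm, as percent of vehicle-treated wells. Compounds spanned 30 μM to 1.0 nM in half-log steps over a 7-day exposure of parental HepG2 cells; CC50 derived by 4-parameter curve fit.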
structure (smiles),measurement,setting,value
"Cc1cc(Cl)cc(NC(=O)c2c(C)c(C(=O)C(=O)N[C@@H]3CCC[C@@H](O)C3)n(C)c2C)c1 [Example 688, N-(3-chloro-5-methylphenyl)-5-(2-(((1R,3R)-3-hydroxycyclohexyl)amino)-2-oxoacetyl)-1,2,4-trimethyl-1H-pyrrole-3-carboxamide]",EC50,[1],< 50 nM
same,CC50 at 7 days,[2],> 30000 nM
COc1c(C(=O)Nc2ccc(F)c(F)c2)c(C)n(C)c1C(=O)C(=O)N[C@@H]1CCC[C@@H]1O [Example 384],EC50,[1],> 1000 nM
same,CC50 at 7 days,[2],> 30000 nM
"Cc1c(C(=O)Nc2ccn(C)n2)c2n(c1C(=O)C(=O)NC(C)(C)CO)CCCC2 [Example 756, 3-(2-((1-hydroxy-2-methylpropan-2-yl)amino)-2-oxoacetyl)-2-methyl-N-(1-methyl-1H-pyrazol-3-yl)-5,6,7,8-tetrahydroindolizine-1-carboxamide]",EC50,[1],50 to 499 nM
same,CC50 at 7 days,[2],> 30000 nM
"Cc1csc(NC(=O)C(=O)c2c(C)c(C(=O)Nc3cnc(F)c(C)c3)c(C)n2C)n1 [Example 342, N-(6-fluoro-5-methylpyridin-3-yl)-1,2,4-trimethyl-5-(2-((4-methylthiazol-2-yl)amino)-2-oxoacetyl)-1H-pyrrole-3-carboxamide]",EC50,[1],500 to 1000 nM
same,CC50 at 7 days,[2],> 30000 nM
"Cc1c(C(=O)Nc2ccc(F)c(Cl)c2)c2n(c1C(=O)C(=O)N[C@H]1COC[C@@H]1O)CCCC2 [Example 450, N-(3-chloro-4-fluorophenyl)-3-(2-(((3S,4R)-4-hydroxytetrahydrofuran-3-yl)amino)-2-oxoacetyl)-2-methyl-5,6,7,8-tetrahydroindolizine-1-carboxamide]",EC50,[1],50 to 499 nM
same,CC50 at 7 days,[2],> 30000 nM
"Cc1cc(NC(=O)c2c(C)c(C(=O)C(=O)NC3(C)CCOCC3)n(C)c2C)ccc1F [Example 277, N-(4-fluoro-3-methylphenyl)-1,2,4-trimethyl-5-(2-((4-methyltetrahydro-2H-pyran-4-yl)amino)-2-oxoacetyl)-1H-pyrrole-3-carboxamide]",EC50,[1],< 50 nM
same,CC50 at 7 days,[2],> 30000 nM
"Cc1noc([C@@H](C)NC(=O)C(=O)c2c(Cl)c(C(=O)Nc3ccc(F)c(Cl)c3)c3n2CCCC3)n1 [Example 524, (R)-2-chloro-N-(3-chloro-4-fluorophenyl)-3-(2-((1-(3-methyl-1,2,4-oxadiazol-5-yl)ethyl)amino)-2-oxoacetyl)-5,6,7,8-tetrahydroindolizine-1-carboxamide]",EC50,[1],50 to 499 nM
same,CC50 at 7 days,[2],5000 to 30000 nM
"Cc1cc(NC(=O)c2c(C)c(C(=O)C(=O)NC(C)(C)C(F)(F)F)n(CCF)c2C)cnc1F [Example 224, N-(6-ffluoro-5-methylpyridin-3-yl)-1-(2-fluoroethyl)-2,4-dimethyl-5-(2-oxo-2-((1,1,1-trifluoro-2-methylpropan-2-yl)amino)acetyl)-1H-pyrrole-3-carboxamide]",EC50,[1],50 to 499 nM
same,CC50 at 7 days,[2],> 30000 nM
"Cc1c(C(=O)Nc2ccc(F)c(F)c2)c2n(c1C(=O)C(=O)NC1(CO)CC1)CCCC2 [Example 463, N-(3,4-difluorophenyl)-3-(2-((1-(hydroxymethyl)cyclopropyl)amino)-2-oxoacetyl)-2-methyl-5,6,7,8-tetrahydroindolizine-1-carboxamide]",EC50,[1],50 to 499 nM
same,CC50 at 7 days,[2],5000 to 30000 nM
"Cc1cc(NC(=O)c2c(C)c(C(=O)C(=O)NC3(c4nnn[nH]4)CCCC3)n(C)c2C)ccc1F [Example 636, 5-(2-((1-(1H-tetrazol-5-yl)cyclopentyl)amino)-2-oxoacetyl)-N-(4-fluoro-3-methylphenyl)-1,2,4-trimethyl-1H-pyrrole-3-carboxamide]",EC50,[1],< 50 nM
same,CC50 at 7 days,[2],> 30000 nM
"Cc1c(C(=O)Nc2ccc(F)c(Cl)c2)c2n(c1C(=O)C(=O)NC1(CO)CC(F)(F)C1)CCCC2 [Example 465, N-(3-chloro-4-fluorophenyl)-3-(2-((3,3-difluoro-1-(hydroxymethyl)cyclobutyl)amino)-2-oxoacetyl)-2-methyl-5,,6,7,8-tetrahydroindolizine-1-carboxamide]",EC50,[1],< 50 nM
same,CC50 at 7 days,[2],5000 to 30000 nM
